Results published in patent US10736968B2, “Cellular signalling inhibitors, their formulations and methods thereof” (INVICTUS ONCOLOGY PVT. LTD., priority 2016, dated 2020).

Tests used:
[1] = tested on: monocytes; assay: M1/M2 marker expression in IL-4 treated monocytes (FACS); assay type: cell-based; settings: IL4 24 hours then inhibitor 24 h, CD206, MHC-II, CD86, CD80
Method: FIG. 4. Effect of BLZ-945 and BLN101 (formulated as AK750) in repolarization of the M2-macrophage phenotype formed upon stimulation with IL-4 to the M1-macrophage phenotype. Monocytes were treated with IL-4 for 24 hours, followed by which they were treated with BLZ-945 or BLN101 (formulated as AK750) in basal DMEM media, and cells were collected at different time points. M1 and M2 markers expression on the macrophages and their isotype control was evaluated separately by FACS. Graph represents the representative M1/M2 ratio by taking into account the various individual M1 and M2 markers that were analyzed using FACS. Data are representative of 3 separate experiments.
Activity Studies of Compound of Formula I • Efficacy of BLN101 vs BLZ945 on the ability to inhibit CSF1R in vitro is studied. RAW264.7 cells are treated with BLZ945 (67 nM) or BLN101 (67 nM) for different time points, at the end of which the cells were exposed to CSF1 (10 ng/ml) for 20 min. The cells were then lysed and analyzed for phosphorylated CSF1R levels. […] Efficacy of BLN101 (in formulation AK750) vs BLZ945 on increase in iNOS expression in vitro is studied. […] At different time-points, the cells are harvested and analyzed the population for M1 (MHCII+, CD86+, CD80+) or M2 (CD206+) markers using fluorescence activated cell sorting (FIG. 5d). […]

[2] = tested on: AKT-mTOR-p70S6K pathway; assay: Downstream signaling in macrophages after drug washout and MCSF exposure (Western blot); assay type: cell-based; settings: 4 hours drug, washout 7 h or 48 h, MCSF 2 h

CNC(=O)c1cc(Oc2ccc3nc(NC4CCCC[C@H]4OC(=O)CCC(=O)O[C@H]4CC[C@@]5(C)C(=CC[C@H]6[C@@H]7CC[C@H](C(C)CCCC(C)C)[C@@]7(C)CC[C@@H]65)C4)sc3c2)ccn1 (stereo in doubt) [BLN101]
M1 and M2 macrophage markers [1]: significantly increases the markers associated with M1 macrophages while reducing the M2 macrophage markers

CNC(=O)c1cc(Oc2ccc3nc(N[C@@H]4CCCC[C@H]4O)sc3c2)ccn1 [BLZ-945]
AKT-mTOR-p70S6K downstream signaling [2]: not by BLZ945 and PLX3397
